{
  "source": "paper PMC6931124",
  "about": "“NPY1R-targeted peptide-mediated delivery of a dual PPARα/γ agonist to adipocytes enhances adipogenesis and prevents diabetes progression” (Molecular Metabolism, 2019)",
  "origin": "cited, not measured here",
  "tested_on": "12-week-old db/db mice",
  "conditions": "ref [100], cited from earlier work",
  "description": "In contradiction to previous tesa in vivo studies, no major improvements in hyperglycemia (serum HbA1C) and serum insulin levels were detected in the treated mice compared to the untreated animals. […] No major changes in the total serum glucose occurred and the insulin levels remained unchanged as the mice adapted to the amount of glucose in their blood. An additional ...",
  "data": [
    {"smiles": "COc1ccc(OC(=O)N(CC(=O)O)Cc2ccc(OCCc3nc(-c4ccccc4)oc3C)cc2)cc1", "note": "[muraglitazar]", "values": [
      {"measurement": "control of glucose and insulin levels, 2–4 weeks", "setting": "2–4 weeks", "result": "treatment for 2–4 weeks did"},
      {"measurement": "control of glucose and insulin levels, one week", "setting": "one week", "result": "did not lead to significant effects"}
    ]}
  ]
}
